The values below come from US9458507B1, “Antipsychotic treatment based on SNP genotype” (Vanda Pharmaceuticals, Inc., priority 2007, dated 2016).

Structures are written as SMILES.

For one assay, the target named is 5-HT, receptor (Homo sapiens, UniProt P34969). As to conditions: cited from earlier work.
Assay [1] has as its system patients with diagnoses of schizophrenia. Description: randomized, double-blind, placebo- and ziprasidone-controlled, 28-day study of iloperidone with whole genome association study; change in PANSS-T by SNP genotype. It is filed as in vivo, human. As to conditions: for mean of change in PANSS-T: iloperidone group, MMRM analysis; for Odds Ratio of Improvement ≧ 20% in PANSS-T: iloperidone-treated patients, LOCF data. As for the experimental part: The clinical trial evaluated the efficacy of iloperidone in treating patients with diagnosed schizophrenia.
Patients 18 to 65 years of age with diagnoses of schizophrenia according to the Diagnostic and Statistical Manual of Mental Disorders, 4th Edition were eligible to participate in a randomized, double-blind, placebo- and ziprasidone-controlled, 28-day study of the efficacy and safety of iloperidone. Patients were randomly assigned to iloperidone 12 mg twice a day, ziprasidone 80 mg twice a day (active control), or placebo. The primary efficacy variable was change from baseline to the last scheduled observation in Positive and Negative Syndrome Scale total score (PANSS-T) using the data from the short-term, double-blind phase. A secondary objective was to identify genetic markers predictive of response to iloperidone.
Blood samples were collected, and DNA was extracted from 432 of 457 patients who consented to the optional WGAS, including 218 patients administered iloperidone and 102 administered placebo.
To independently discover and confirm biomarkers of iloperidone efficacy, patients administered iloperidone were randomly separated and genotyped for the WGAS into two groups (Group 1 (discovery phase) and Group 2 (confirmatory phase)) of equal size. PROC SURVEYSELECT (SAS Institute, Cary, N.C.) was used to stratify the groups to have approximately equal numbers of patients of each race and each sex.
In Group 1, each SNP was tested for potential association between genotype and change in PANSS-T for patients in the low 30% and the high 30% extremes of the distribution of Day 28 last-observation-carried-forward (LOCF) data. Analysis was performed using a truncated nonparametric measure analysis of variance (ANOVA), based on the Kruskal-Wallis test, with genotypes as the grouping variables. Based on a significant omnibus test and ad hoc contrasts, the results that produced the most parsimonious genetic model (e.g., homozygous for one allele vs. all other genotypes (e.g., AA vs. AB and BB), heterozygous vs. homozygous genotypes (AB vs. AA and BB)) dictated the genetic model that was tested in the confirmatory phase. For ease of global description, given that each SNP might have a different parsimonious model, the genotypes of all SNPs associated with positive iloperidone response were referred to as genotype class C1, and the remaining genotypes for that SNP were referred to as genotype class C2. If no parsimonious genetic model was obtained for a SNP, it was not tested further. Only the subset of 100 SNPs with the lowest P values for the contrasts that defined C1 and C2 was tested in the confirmatory phase.
Two separate methods were applied. LOCF data for PANSS-T at Day 28 were used in a one-way ANOVA of each SNP, testing each genotype class against the class of the other two genotypes combined. Results from the ANOVA dictated the parsimonious genetic model to be used for additional testing. Mixed Model Repeated Measures (MMRM) analysis was subsequently conducted using the parsimonious genetic model of each SNP in the MMRM model, as used for the analysis of the clinical trial results. In the MMRM analysis, only the best genetic model of each SNP, as determined in the ANOVA LOCF data analysis, was used.
Three analyses were performed. Analysis 1 was a two-phase approach in which DNA samples were separated into two groups. The first group consisted of 50% of the samples for a discovery phase in which only the top 30% and the bottom 30% of the change in PANSS-T (LOCF data) were used, and the second was a hold-out group consisting of the other 50% for a confirmatory phase. Only the 100 SNPs with the lowest P values in the discovery phase were subsequently tested.
Analysis 2 was an ANOVA of LOCF data for all iloperidone-treated patients in a single-phase approach.
Analysis 3 was an MMRM analysis of all patients using the most parsimonious genetic model of each SNP. […]

5-HT, receptor, sequence (P34969 whole entry): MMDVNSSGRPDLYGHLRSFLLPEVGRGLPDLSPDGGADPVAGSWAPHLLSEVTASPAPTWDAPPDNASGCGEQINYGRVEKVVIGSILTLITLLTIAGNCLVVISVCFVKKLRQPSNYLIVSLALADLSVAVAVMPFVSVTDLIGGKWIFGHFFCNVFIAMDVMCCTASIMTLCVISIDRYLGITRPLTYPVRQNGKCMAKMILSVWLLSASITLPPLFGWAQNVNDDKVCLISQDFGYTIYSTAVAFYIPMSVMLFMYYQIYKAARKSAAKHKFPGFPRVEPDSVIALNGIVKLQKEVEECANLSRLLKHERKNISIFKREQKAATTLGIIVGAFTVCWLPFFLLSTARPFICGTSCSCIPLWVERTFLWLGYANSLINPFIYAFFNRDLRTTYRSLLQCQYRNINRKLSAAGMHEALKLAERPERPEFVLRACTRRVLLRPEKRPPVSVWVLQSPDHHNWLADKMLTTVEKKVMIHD

On to `COc1cc(C(C)=O)ccc1OCCCN1CCC(c2noc3cc(F)ccc23)CC1` [iloperidone, 1-[4-[3-[4-(6-flouro-1,2-benzisoxazol-3-yl)-1-piperidinyl]propoxy]-3-methoxyphenyl] ethanone], for which the “affinity for the 5-HT, receptor” value at 5-HT, receptor is reported as “high affinity”. Also, the “mean of change in PANSS-T” value in assay [1] (rs875326 (TNR) genotype non-AG (homozygotes, highest response class)) is −16.39 (±4.35); in assay [1] (rs4528226 (NUDT9P1) genotype GT (highest response class)) it was −18.73 (±3.99); in assay [1] (rs7837682 (GRFA2) genotype AA (highest response class)), −15.95 (±4.23). The “Odds Ratio of Improvement ≧ 20% in PANSS-T” value in assay [1] (rs875326 (TNR) non-AG vs AG) is given as 3.57; in assay [1] (rs2513265 (GRIA4) non-TT vs TT), 2.43; in assay [1] (rs4528226 (NUDT9P1) GT vs non-GT) it was 3.00; in assay [1] (rs7837682 (GRFA2) AA vs non-AA), 2.95; in assay [1] (rs9643483 (XKR4) non-GG vs GG), 3.42; in assay [1] (rs11851892 (NPAS3) non-GG vs GG) it was 2.74. Besides, the “improvement in PANSS-T greater than the mean response of all iloperidone-treated patients” value in assay [1] (rs11851892 non-GG genotype vs all iloperidone-treated patients) is 68%.
